For series [1] the following is noted: cited from earlier work.
Series [2] is described as follows: Gas dissolved in teat dip solution under pressure. It is filed as physicochemical. The following applies: standard room temperature and 100 psi pressure.
Source text: The pressure vessel was constructed from a 0.1 m outside diameter piece of stainless steel tubing. The ends of the tube were capped with tri clover fittings to allow ease of access. The tri-clover caps were modified by adding two entry points on the proximal cap. One entry point on the proximal cap is to allow propellant/diffused gas to be introduced and the other is used to bleed off atmospheric air, when the tank was initially filled with propellant/diffused gas and to relieve pressure before refilling. On the distal cap of the tank two openings were added, each with tubing securely attached and each tube going to a manual shut off valve with a spray nozzle attached. A propellant/diffusion gas source with regulator was attached to the pressure vessel through the entry point on the proximal cap. The pressure vessel is filled about half full with teat dip solution, closed and the tank is pressurized with approximately 100 pounds per square inch (psi) of propellant/diffusion gas, except for the 50% carbon dioxide and 50% nitrous oxide propellant/diffusion gas which is set at 150 psi. The distance and angle from nozzle to teat is 0.15 m and 45 degrees from the horizontal (which were set to mimic a robotic tool used for some embodiments). […]

Read-outs that look alike come from different tables or passages of the source.

We go through 2 compounds from patent US20100150845A1, “SYSTEM AND METHOD FOR THE DELIVERY OF A SANITIZING FOAM” (GREEN SOURCE AUTOMATED, LLC, priority 2008, published 2010).

With `O=C=O` [CO2, Carbon dioxide], the results for the vapor pressure result in series [1] (at 185° K.) and in series [1] (at 290° K.) were “approximately 0.45 bar” and “approximately 50 bar”, respectively. The “volumes of gas dissolved per volume of dip solution” value in series [2] is “approximately 4.5 volumes”.

With `[N-]=[N+]=O` [Example N2O, nitrous oxide], the vapor pressure result in series [1] (at 185° K.) is listed as “approximately 1 bar”; in series [1] (at 290° K.), “approximately 50 bar”. In addition, in series [2], the “volumes of gas dissolved in one volume of the dip solution” value is reported as “approximately four”.
